In patent US9475766B2, “Substituted aromatic sulfur compounds and methods of their use” (Cephalon, Inc., priority 2011, dated 2016):

Tests used:
Format in all cases: cell-based
[1] = system: HT29 colon cancer cell line; test: Cell survival and adhesion assay (luciferase), HT29; details: HT-29, 5 hours, HT29 cells overlayed onto human mesothelial cell monolayers, read-out: relative reduction in Luciferase activity, HT29 10 μM
Procedure: (§1) SU86 is a pancreatic cancer cell line. HT29 is a colon cancer cell line. BxPC3 is a pancreatic cell line. A2780 is an ovarian cancer cell line.
(§2) BxPc-3 and Su.86.86 pancreatic and HT-29 colon and A2780 ovarian cancer cell lines were purchased from ATCC and cultured in DMEM supplemented with 10% fetal bovine serum, glutamine, penicillin, and streptomycin. All cells were cultured at 37° C. in a humidified incubator in a 5% CO2 atmosphere. The cancer cell lines were transduced with a retrovirus containing pLuc-puro, a constitutive luciferase reporter and selected in […] media. Transient transfection of a full-length human c-FLIP construct in the vector pcDNA3 was performed as previously described. Scaife et al. Cancer Research 2002, 62: 6870-78.
(§3) Pancreatic cancer cell cultures (BxPc-3 and Su.86.86) and colon cancer (HT-29) and ovarian cancer (A2780) cells that were stably transfected with a firefly luciferase construct were transiently suspended with trypsin-PBS. 10^5 cells were overlayed onto confluent monolayers of human mesothelial cells in 96-well plates while simultaneously adding various concentrations of compounds of the invention or DMSO for 5 hours. The non-adherent cells were carefully washed away from the wells twice with 100 μl/well of blocking buffer (1% BSA in PBS) and twice again with ice-cold PBS. Adherent and surviving cells were detected by luciferase activity in a luminometer as follows. The cells were lysed in 0.1% TritonX-100, 25 mM Gly-Gly (7.8), MgSO4, 4 mM EGTA, 1 mM DTT. The total protein concentration was normalized with lysis buffer. 50 μl of cell lysate was added per well of a 96-well microtiter plate. 50 μl of luciferin substrate (Promega) was added per well and then the light output determined in a luminometer.

[2] = system: BxPC3 pancreatic cell line; test: Cell survival and adhesion assay (luciferase), BxPC3; details: BXPC-3, 5 hours, BxPC3 cells overlayed onto human mesothelial cell monolayers, read-out: relative reduction in Luciferase activity, BxPC3 10 μM
Procedure: as §1, §2, §3

[3] = system: SU86 pancreatic cancer cell line (Su.86.86); test: Cell survival and adhesion assay (luciferase), SU86; details: 5 hours, SU86 cells overlayed onto human mesothelial cell monolayers, read-out: relative reduction in Luciferase activity, SU86 10 μM
Procedure: as §1, §2, §3

[4] = system: A2780 ovarian cancer cell line; test: Cell survival and adhesion assay (luciferase), A2780; details: 5 hours, A2780 cells overlayed onto human mesothelial cell monolayers, read-out: relative reduction in Luciferase activity, A2780 10 μM
Procedure: as §1, §2, §3

Structure (SMILES)	inhibition at 10 µM [1] [%]	inhibition at 10 µM [2] [%]	inhibition at 10 µM [3] [%]	inhibition at 10 µM [4] [%]
CC(C)(C(=O)NNC(=O)C1CCCCC1)c1ccc(S(=O)(=O)/C=C/C#N)cc1 [Example 52, Cyclohexanecarboxylic acid N′-{2-[4-((E)-2-cyano-ethenesulfonyl)-phenyl]-2-methyl-propionyl}-hydrazide]	50 to 85	< 10	10 to 50	–
COc1ccccc1CN(C)C(=O)C(C)(C)c1ccc(S(=O)(=O)/C=C/C#N)cc1 [Example 46, 2-[4-((E)-2-Cyano-ethenesulfonyl)-phenyl]-N-(2-methoxy-benzyl)-N-methyl-isobutyramide]	> 85	> 85	50 to 85	–
CC(C)(C(=O)NCc1ccccc1F)c1ccc(S(=O)(=O)/C=C/C#N)cc1 [Example 40, 2-[4-((E)-2-Cyano-ethenesulfonyl)-phenyl]-N-(2-fluoro-benzyl)-isobutyramide]	> 85	> 85	50 to 85	–
CC(C)(C(=O)NCc1ccc(S(C)(=O)=O)cc1)c1ccc(S(=O)(=O)/C=C/C#N)cc1 [Example 27, 2-[4-((E)-2-Cyano-ethenesulfonyl)-phenyl]-N-(4-methanesulfonyl-benzyl)-isobutyramide]	10 to 50	< 10	< 10	–
CC(C)(c1ccc(S(=O)(=O)/C=C/C#N)cc1)c1nc2ccccc2[nH]1 [Example 49, (E)-3-{4-[1-(1H-Benzimidazol-2-yl)-1-methyl-ethyl]-benzenesulfonyl}-acrylonitrile]	–	< 10	< 10	< 10
Cc1cnc(C(C)(C)c2ccc(S(=O)(=O)/C=C/C#N)cc2)o1 [Example 51, (E)-3-{4-[1-Methyl-1-(5-methyl-oxazol-2-yl)-ethyl]-benzenesulfonyl}-acrylonitrile]	> 85	> 85	50 to 85	–
CC(C)(C)OC(=O)NCCCCCCNC(=O)C(C)(C)c1ccc(S(=O)(=O)/C=C/C#N)cc1 [Example 33, (6-{2-[4-((E)-2-Cyano-ethenesulfonyl)-phenyl]-2-methyl-propionylamino}-hexyl)-carbamic acid tert-butyl ester]	50 to 85	10 to 50	< 10	–
Cc1ccc2oc(C(C)(C)c3ccc(S(=O)(=O)/C=C/C#N)cc3)nc2c1 [Example 50, (E)-3-{4-[1-Methyl-1-(5-methyl-benzoxazol-2-yl)-ethyl]-benzenesulfonyl}-acrylonitrile]	> 85	> 85	50 to 85	–
CN(Cc1ccc(F)cc1)C(=O)C(C)(C)c1ccc(S(=O)(=O)/C=C/C#N)cc1 [Example 41, 2-[4-((E)-2-Cyano-ethenesulfonyl)-phenyl]-N-(4-fluoro-benzyl)-N-methyl-isobutyramide]	> 85	> 85	50 to 85	–
CC(C)(C)OC(=O)NCCNC(=O)C(C)(C)c1ccc(S(=O)(=O)/C=C/C#N)cc1 [Example 32, (2-{2-[4-((E)-2-Cyano-ethenesulfonyl)-phenyl]-2-methyl-propionylamino}-ethyl)-carbamic acid tert-butyl ester]	50 to 85	10 to 50	10 to 50	–
COCCOc1cccc(NC(=O)C(C)(C)c2ccc(S(=O)(=O)/C=C/C#N)cc2)c1 [Example 42, 2-[4-((E)-2-Cyano-ethenesulfonyl)-phenyl]-N-[3-(2-methoxy-ethoxy)-phenyl]-isobutyramide]	> 85	50 to 85	50 to 85	–
CC(C)(C(=O)NCc1ccc(S(N)(=O)=O)cc1)c1ccc(S(=O)(=O)/C=C/C#N)cc1 [Example 26, 2-[4-((E)-2-Cyano-ethenesulfonyl)-phenyl]-N-(4-sulfamoyl-benzyl)-isobutyramide]	< 10	< 10	< 10	–
C[C@H](NC(=O)C(C)(C)c1ccc(S(=O)(=O)/C=C/C#N)cc1)c1ccccc1 [Example 16, 2-[4-((E)-2-Cyano-ethenesulfonyl)-phenyl]-N—((S)-1-phenyl-ethyl)-isobutyramide]	–	50 to 85	50 to 85	> 85
COc1cccc(CNC(=O)C(C)(C)c2ccc(S(=O)(=O)/C=C/C#N)cc2)c1 [Example 44, 2-[4-((E)-2-Cyano-ethenesulfonyl)-phenyl]-N-(3-methoxy-benzyl)-isobutyramide]	> 85	> 85	50 to 85	–
C[C@@H](NC(=O)C(C)(C)c1ccc(S(=O)(=O)/C=C/C#N)cc1)c1ccccc1 [Example 17, 2-[4-((E)-2-Cyano-ethenesulfonyl)-phenyl]-N—((R)-1-phenyl-ethyl)-isobutyramide]	–	50 to 85	50 to 85	> 85
CC(C)(c1ccc(S(=O)(=O)/C=C/C#N)cc1)c1nnc(Nc2ccccc2)o1 [Example 47, (E)-3-{4-[1-Methyl-1-(5-phenylamino-[1,3,4]oxadiazol-2-yl)-ethyl]-benzenesulfonyl}-acrylonitrile]	–	50 to 85	10 to 50	50 to 85
N#C/C=C/S(=O)(=O)c1ccc(C2(C(=O)NCc3ccc(Cl)cc3)CCC2)cc1 [Example 76, 1-[4-((E)-2-Cyano-ethenesulfonyl)-phenyl]-cyclobutanecarboxylic acid 4-chloro-benzylamide]	–	50 to 85	–	> 85
CC(C)(C(=O)NCc1ccc(F)cc1)c1ccc(S(=O)(=O)/C=C/C#N)cc1 [Example 18, 2-[4-((E)-2-Cyano-ethenesulfonyl)-phenyl]-N-(4-fluoro-benzyl)-isobutyramide]	–	50 to 85	50 to 85	> 85
C#CCNC(=O)C(C)(C)c1ccc(S(=O)(=O)/C=C/C#N)cc1 [Example 19, 2-[4-((E)-2-Cyano-ethenesulfonyl)-phenyl]-N-prop-2-ynyl-isobutyramide]	–	10 to 50	10 to 50	10 to 50
N#C/C=C/S(=O)(=O)c1ccc(C2(C(=O)O)CCOCC2)cc1 [Example 82, 4-[4-((E)-2-Cyano-ethenesulfonyl)-phenyl]-tetrahydro-pyran-4-carboxylic acid]	–	< 10	–	< 10
CC(C)(C(=O)NCc1ccc(-n2cccn2)cc1)c1ccc(S(=O)(=O)/C=C/C#N)cc1 [Example 21, 2-[4-((E)-2-Cyano-ethenesulfonyl)-phenyl]-N-(4-pyrazol-1-yl-benzyl)-isobutyramide]	–	50 to 85	50 to 85	50 to 85
CC(C)(C(=O)NCCc1ccccc1)c1ccc(S(=O)(=O)/C=C/C#N)cc1 [Example 24, 2-[4-((E)-2-Cyano-ethenesulfonyl)-phenyl]-N-phenethyl-isobutyramide]	–	50 to 85	50 to 85	> 85
CCNc1nnc(C(C)(C)c2ccc(S(=O)(=O)/C=C/C#N)cc2)o1 [Example 48, (E)-3-{4-[1-(5-Ethylamino-[1,3,4]oxadiazol-2-yl)-1-methyl-ethyl]-benzenesulfonyl}-acrylonitrile]	–	< 10	< 10	10 to 50
COc1cccc(NC(=O)C(C)(C)c2ccc(S(=O)(=O)/C=C/C#N)cc2)c1 [Example 25, 2-[4-((E)-2-Cyano-ethenesulfonyl)-phenyl]-N-(3-methoxy-phenyl)-isobutyramide]	–	50 to 85	50 to 85	> 85
CN(Cc1ccccc1)C(=O)C(C)(C)c1ccc(S(=O)(=O)/C=C/C#N)cc1 [Example 22, N-Benzyl-2-[4-((E)-2-cyano-ethenesulfonyl)-phenyl]-N-methyl-isobutyramide]	–	> 85	50 to 85	> 85
Cc1ccc(O)c(NC(=O)COc2ccc(S(=O)(=O)/C=C/C#N)cc2C(C)(C)C)c1 [Example 79, 2-[2-tert-Butyl-4-((E)-2-cyano-ethenesulfonyl)-phenoxy]-N-(2-hydroxy-5-methyl-phenyl)-acetamide]	–	> 85	–	> 85
N#C/C=C/S(=O)(=O)c1ccc(C2(C(=O)NC3CCCCC3)CCC2)cc1 [Example 77, 1-[4-((E)-2-Cyano-ethenesulfonyl)-phenyl]-cyclobutanecarboxylic acid cyclohexylamide]	–	50 to 85	–	> 85
